The source of these data is article PMC11487604, “Selective, Intrinsically Fluorescent Trk Modulating Probes” (ACS Chemical Neuroscience, 2024).

Read-outs that look alike come from different tables or passages of the source. *1 amine or outer side, *2 acyl side, *3 side chain or, on linkers, in order; H or OH if unused. Where a SMILES comes first, the peptide text is derived from it. Bridges are numbered along the chain shown (N, C = ends). X1 = COc1ccc(C2=C3C=C(S(=O)(=O)O)C([*:2])=[N+]3[B-](F)(F)n3c2cc(S(=O)(=O)O)c3[*:1])cc1; X2 = COc1ccc(C2=C3C=C(S(=O)(=O)O)C([*:1])=[N+]3[B-](F)(F)n3c2cc(S(=O)(=O)O)c3[*:2])cc1

The target in assay [1] is TrkB-expressing cells (HEK+B) (UniProt Q16620). Kind of assay: Cell survival assay in serum-free media, TrkB-expressing cells (HEK+B). Particulars: normalized to DMSO (0%) and 1.0 nM BDNF (100%). The assay is classed as cell-based. Here is the method: Loop mimics 5 were screened in cell survival assays to evaluate their efficacy in stimulating Trk receptors (Figure 2). Mimics were assayed for the ability to rescue cells from cell death when incubated in serum-free media (SFM) in the absence of NTs (a test for “agonism”) or in the presence of a suboptimal NT concentration (a test for NT “modulation”). Simultaneously, these assays may confirm test mimics are not cytotoxic at lower doses (though cytotoxicity assays were also performed up to higher doses, Figure S1). […] All the test compounds were screened at 50 μM concentrations initially, and then, dose response curves were measured for the hits (Table 1 and Figure 3).
We were forced to use transfectants in different cell lines (HeLa, HEK-293, NIH-3T3 expressing TrkA, B, and C, respectively) due to difficulties in obtaining transfected cells derived from a single wild type; however, none of the cells used express TrkA-C prior to transfection. Throughout this paper, HeLa cells are denoted as “HeLa”, and their TrkA transfectants are “HeLa+A”. Similarly, HEK-293 cells are “HEK”; their TrkB transfectants are HEK+B. NIH-3T3 cells are “NIH”, and their TrkC transfectants are “NIH+C”.
Cells were seeded at a density of 2 × 10^3 cells/well in complete media in 96-well plates and incubated for 24 h to allow cells to adhere. Cells were washed with DPBS, and then, media were swapped for serum-free media of the same type as the complete media. Cells were then treated with 50 μM compound either alone or in conjunction with suboptimal neurotrophin corresponding to the Trk receptor expressed for 48 h. Cells were washed with DPBS buffer twice and detached from the plate with 50 μL of trypsin for 3 min at 37 °C. Trypsinization was quenched with 100 μL of complete media. Cells were suspended and live cells counted using flow cytometry (CytoFLEX LX). Cell survival was normalized from cell count (CC) readings relative to optimal neurotrophin (NT = 100%) and DMSO (0%) utilizing GraphPad Prism 10.2, followed by statistical analysis via one-way ANOVA and Dunnett’s t test compared to the DMSO control. Dose response versions of this assay were conducted following the same procedure, but the data was analyzed in GraphPad Prism 10.2 using the nonlinear fit: {agonist} vs response – variable slope (four parameters) function.

For another assay, the target named is T1, TrkB (HEK293-TrkB cells) (Homo sapiens, UniProt Q16620).
T1 construct: expressed in transfected cells; host or cells: HEK293
Briefly: Cell-surface fluorescence binding to live HEK293-TrkB cells. The following applies: HEK293-TrkB minus HEK293 wild-type fluorescence, 2.5 h. The source says: Binding of the selective, intrinsically fluorescent mimics to cells can be observed and quantitated via fluorescence. Raw data includes fluorescence associated with material not removed in the washing step (sticky, nonselective binding), and if there were binding to any receptors other than Trk, then fluorescence would be observed for this too. In a second experiment, fluorescence associated with the wild-type cells without Trk expression was similarly recorded to provide a baseline correction representative of that nonselective binding, plus affinity to non-Trk receptors if that occurred. Consequently, fluorescence observed in the noncompetitive experiment minus that in the one using Trk-negative cell lines represents a minimum associated with binding to the expressed Trk receptor. […]
Trk-positive transfected cell lines (HeLa-TrkA, HEK293-TrkB, and NIH3T3-TrkC) and Trk-negative cell lines (HeLa, HEK293, and NIH3T3) were seeded at a density of 2 × 10^3 cells/well in 96-well plates and incubated for 24 h to allow them to adhere. […] Cell associated fluorescence was then determined by measuring emission of the resulting solution on a plate reader (BioTek Synergy H4 Hybrid Reader), λex (540/25 nm) and λem (620/40 nm). […]

In assay [2] the target is TrkA-expressing cells (HeLa+A) (UniProt P04629). Kind of assay: Cell survival assay in serum-free media, TrkA-expressing cells (HeLa+A). Particulars: Figure 8 summary. The assay is classed as cell-based.
Description: Cells were seeded at a density of 2 × 10^3 cells/well in complete media in 96-well plates and incubated for 24 h to allow cells to adhere. Cells were washed with DPBS, and then, media were swapped for serum-free media of the same type as the complete media. […] Cells were suspended and live cells counted using flow cytometry (CytoFLEX LX).
Assay [3] concerns pAKT in PC12 (TrkA+) cells. Briefly: ELFI, pAKT signaling in PC12 cells, competition with NT. The assay is classed as cell-based, rat. Particulars: competed with 10 ng/mL NT, 1 h. Here is the method:
(§1) Throughout, the positive control was concentration-dependent treatment with the parent NT in half-log dilutions from 100 ng/mL to 0.1 ng/mL, and the negative control was to treat the cells with only DMSO. We first determined Z′ factors[83] based on these boundary controls. Once the assays had been validated (Z′ > 0.5), we determined optimal times to fix cells after treatment (taking into account potential differences in the kinetics of Trk activation between small molecules and neurotrophins), mimicked dose ranges, and then performed dose response studies.
(§2) Assays were conducted as previously reported.[36] Trk-positive cells (PC12, HEK293-TrkB, and NIH3T3-TrkC) were seeded at a density of 2 × 10^4 cells per well in poly-D-lysine (PDL)-coated 96-well white flat-bottomed plates and allowed to adhere for 24 h. Cells were washed once with SFM and then incubated for 1–2 h in SFM. A serial dilution of compound and/or NT was added, and the cells were incubated for 15 min (agonism experiments) or 1 h (antagonism). […] Cells were washed 6× with WB, and then, levels of phosphorylation were quantified using SuperSignal ELISA Pico Chemiluminescent Substrate (Thermo Scientific). […] IC50 is calculated for 5c(ii) using the {inhibitor} vs response – variable slope (four parameters) function in GraphPad Prism 10.2.

The test system of a further assay is pAKT in NIH+C cells. Briefly: ELFI, pAKT signaling in NIH+C cells, competition with NT. The assay is classed as cell-based. The following applies: competed with 10 ng/mL NT, 1 h. Here is the method:
as §1, §2

Assay [4] deals with pMAPK in PC12 (TrkA+) cells. Kind of assay: ELFI, pMAPK signaling in PC12 cells, competition with NT. The class given is cell-based, rat. The following applies: competed with 10 ng/mL NT, 1 h. Here is the method:
as §1, §2

The next assay concerns pMAPK in NIH+C cells. Briefly: ELFI, pMAPK signaling in NIH+C cells, competition with NT. The following applies: competed with 10 ng/mL NT, 1 h. The assay is classed as cell-based. The method, then:
as §1, §2

For assay [5], the system named is primary adult cortical neurons. Briefly: Primary adult cortical neuron assay (neurite outgrowth and survival). The class given is cell-based, mouse. The source says: We next decided to test the effects of 5c(ii) on primary mouse adult cortical neurons. These neurons naturally express TrkA[84] and therefore provide a more clinically relevant substrate to test compound leads in than analogous Trk-expressing transfectants. In addition, using neurons extracted from adult mice provide increased relevance to neurodegenerative and other nervous-system related diseases and injury, since most of these primarily occur in adult populations.[85],[86] To determine any potential for preclinical applications, 5c(ii) (5 μM) was incubated with primary cortical neurons from 6-week-old male mice at the time of plating, and neuronal survival and neurite outgrowth were quantified.
Figure 7 5c(ii) promotes neuroprotection. Primary adult cortical neurons were extracted from 6-week-old male mice and plated on 384-well PDL-coated plastic bottom plates at 10,000 cells/well. 5c(ii) at 5 μM concentration was added at the time of plating. 48 h after plating, the cells were fixed to conduct immunocytochemistry. Graph represents the mean ± SEM of (a) total neurite outgrowth per cell and (b) number of valid neurons per well. Representative images of cortical neurons treated with (c) vehicle and (d) 5 μM 5c(ii). Student’s t test. N = 3–5. *p < 0.05.
Cortical neuron assay was conducted as previously described.[85] Briefly, wild-type 6-week-old C57Bl/6 male mice were euthanized using CO2, and the brains were removed. The cortex was isolated and transferred to a MACS C-tube and then dissociated using the Miltenyi gentleMACS octo-dissociator on a preset protocol designed for adult rodent brains. […] Images were quantified using the Neurite Outgrowth Analysis Module in MetaXpress 6 software (Molecular Devices). For quantification, the number of valid neurons is determined by quantifying the number of TUBB3^+/DAPI^+ cells in a well with ≥10 μm of total neurite outgrowth. Total neurite outgrowth is determined by dividing the length of all neurites in a well by the number of valid neurons in that respective well. […]

On the set-up of assay [6]: method as in PMID 34451801. The following applies: lack of selectivity; cited from earlier work.
For a further assay, the system named is TrkC. Particulars: cited from earlier work.
For the next assay, the system named is p75. Particulars: cited from earlier work.

TrkB-expressing cells (HEK+B), sequence (Q16620 32-822): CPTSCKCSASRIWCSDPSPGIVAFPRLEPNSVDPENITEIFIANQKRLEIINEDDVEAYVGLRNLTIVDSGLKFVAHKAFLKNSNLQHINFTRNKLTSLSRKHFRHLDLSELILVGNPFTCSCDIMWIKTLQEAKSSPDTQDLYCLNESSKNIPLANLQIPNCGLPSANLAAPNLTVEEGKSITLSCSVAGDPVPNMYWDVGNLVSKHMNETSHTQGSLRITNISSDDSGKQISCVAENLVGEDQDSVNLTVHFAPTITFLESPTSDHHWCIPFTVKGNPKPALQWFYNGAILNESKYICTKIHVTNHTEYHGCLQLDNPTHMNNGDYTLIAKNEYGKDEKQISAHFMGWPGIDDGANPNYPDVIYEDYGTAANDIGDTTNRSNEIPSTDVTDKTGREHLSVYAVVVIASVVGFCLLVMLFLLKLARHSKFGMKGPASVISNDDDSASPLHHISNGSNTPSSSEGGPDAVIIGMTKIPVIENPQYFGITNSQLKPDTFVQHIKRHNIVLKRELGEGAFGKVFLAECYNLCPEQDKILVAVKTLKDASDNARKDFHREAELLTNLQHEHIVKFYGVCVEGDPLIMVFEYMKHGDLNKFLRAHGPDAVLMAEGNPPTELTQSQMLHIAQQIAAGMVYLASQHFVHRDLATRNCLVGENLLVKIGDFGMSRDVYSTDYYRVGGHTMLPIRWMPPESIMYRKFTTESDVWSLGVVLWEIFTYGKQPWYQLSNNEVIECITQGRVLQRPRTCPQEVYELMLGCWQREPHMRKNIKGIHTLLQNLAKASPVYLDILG
TrkA-expressing cells (HeLa+A), sequence (P04629 33-796): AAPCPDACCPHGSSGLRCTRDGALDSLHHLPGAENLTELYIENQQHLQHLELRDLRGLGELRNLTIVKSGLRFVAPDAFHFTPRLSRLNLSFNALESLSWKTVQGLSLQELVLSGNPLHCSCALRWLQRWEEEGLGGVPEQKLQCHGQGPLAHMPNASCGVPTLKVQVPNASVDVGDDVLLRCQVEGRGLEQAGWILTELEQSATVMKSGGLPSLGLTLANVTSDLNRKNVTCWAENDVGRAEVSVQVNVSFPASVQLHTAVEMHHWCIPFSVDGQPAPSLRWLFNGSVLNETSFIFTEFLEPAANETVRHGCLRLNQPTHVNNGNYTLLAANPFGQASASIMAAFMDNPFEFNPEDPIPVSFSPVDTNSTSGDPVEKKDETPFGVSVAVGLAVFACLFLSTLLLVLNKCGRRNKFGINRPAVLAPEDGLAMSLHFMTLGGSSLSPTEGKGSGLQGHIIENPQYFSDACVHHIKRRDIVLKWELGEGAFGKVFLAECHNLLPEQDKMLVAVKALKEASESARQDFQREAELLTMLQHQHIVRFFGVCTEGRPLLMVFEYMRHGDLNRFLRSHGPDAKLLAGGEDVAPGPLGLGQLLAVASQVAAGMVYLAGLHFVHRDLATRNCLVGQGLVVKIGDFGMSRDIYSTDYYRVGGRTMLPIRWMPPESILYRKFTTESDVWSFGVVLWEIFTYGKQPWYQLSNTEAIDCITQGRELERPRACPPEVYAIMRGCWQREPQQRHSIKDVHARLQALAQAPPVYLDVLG

Regarding `COc1ccc(C2=C3C=C(S(=O)(=O)O)C4=[N+]3[B-](F)(F)n3c2cc(S(=O)(=O)O)c3SC[C@@H](C(N)=O)NC(=O)CNC(=O)[C@H](CO)NC(=O)[C@H](CCSC)NC(=O)[C@H](CC(=O)O)NC(=O)[C@@H](NC(C)=O)CS4)cc1` [5b(i)] (Ac-CDMSGC-NH2; linker 1-6 via X2), the EC50 (as a rule, the concentration that produces a half-maximal response) turned out to be 1.8 µM in [1] (cell survival with 0.6 nM BDNF, read-out: EC50 (μM) with suboptimal neurotrophin) and 0.4 µM in assay [1] (dose-dependent cell survival without NT, read-out: EC50). Moreover, the Kd (commonly the equilibrium constant for the complex coming apart) on TrkB (HEK293-TrkB cells) was 73 ± 13 nM.

`COc1ccc(C2=C3C=C(S(=O)(=O)O)C4=[N+]3[B-](F)(F)n3c2cc(S(=O)(=O)O)c3SC[C@H](NC(C)=O)C(=O)N[C@@H]([C@@H](C)O)C(=O)N[C@@H](CCC(N)=O)C(=O)N[C@@H](CC(N)=O)C(=O)N[C@@H](CO)C(=O)N[C@H](C(N)=O)CS4)cc1` [5c(ii)] (Ac-CTQNSC-NH2; linker 1-6 via X1; N-terminus and C-terminus assumed): in assay [2], the “result (Trk activity assigned)” value is given as “TrkA modulator”. Also, the IC50 (in general, the concentration needed to halve the response being measured) in [3] amounted to 7 µM; in the assay with pAKT in NIH+C cells it was 7 µM; in assay [4], 7 µM; in the assay with pMAPK in NIH+C cells it was 35 µM. The “change in neurite outgrowth” value in assay [5] (5 μM, 48 h, neurons from 6-week-old male mice) is “no significant change”. The “increase in the number of valid neurons” value in [5] (5 μM, after 48 h, neurons from 6-week-old male mice, vs vehicle) was “over 50%”.

In the case of `O=c1cc(-c2ccccc2)oc2c(O)c(O)ccc12` [7,8-DHF, 7,8-Dihydroxyflavone], the “number of targets bound” value in assay [6] was 133.

On to `NCCCC[C@@H]1NC(=O)[C@H](CCC(=O)O)NC(=O)c2cc([N+](=O)[O-])ccc2OCC[C@@H](C(=O)NCC(=O)O)NC1=O` [D3], for which, in [5] (data not shown), the “effect in primary adult cortical neuron assay” value is reported as “no measurable effect”. For the same compound, in the assay with TrkC, the “binding to TrkC” value is on record as “does not bind”. The “binding to p75” value in the assay on p75 is given as “does not bind”.
